We go through nine cell lines from the supplement of paper PMC10307832.

Assay in all cases: relative viability (nuclei count vs DMSO), 5 days (fraction); higher = more cells survive
Compound in the experiment “Tipifarnib + Pictilisib”: Cn1cncc1[C@@](N)(c1ccc(Cl)cc1)c1ccc2c(c1)c(-c1cccc(Cl)c1)cc(=O)n2C [Tipifarnib] + CS(=O)(=O)N1CCN(Cc2cc3nc(-c4cccc5[nH]ncc45)nc(N4CCOCC4)c3s2)CC1 [Pictilisib] (partner 1 µM)
The method, boiled down:
(§1)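 Relative viability divides the nuclei count in treated wells by that in vehicle wells. Lung cancer cell lines were seeded in 1536-well plates, dosed by pin tool the next day, and fixed and stained after 5 days in one step with final 0.05% Triton X-100, 1% formaldehyde and 1 ug/ml Hoechst. Dosing was a single drug or a fixed anchor-drug dose plus five library-drug doses (not always all listed) in √10 steps, and values are medians of duplicate plates imaged at 4×.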

Compound in the experiment “Tipifarnib + Phenformin”: Cn1cncc1[C@@](N)(c1ccc(Cl)cc1)c1ccc2c(c1)c(-c1cccc(Cl)c1)cc(=O)n2C [Tipifarnib] + N=C(N)NC(=N)NCCc1ccccc1 [Phenformin] (partner 250 µM)
The method, boiled down:
as §1

Compound in the experiment “Tipifarnib + Palbociclib”: Cn1cncc1[C@@](N)(c1ccc(Cl)cc1)c1ccc2c(c1)c(-c1cccc(Cl)c1)cc(=O)n2C [Tipifarnib] + CC(=O)c1c(C)c2cnc(Nc3ccc(N4CCNCC4)cn3)nc2n(C2CCCC2)c1=O [Palbociclib] (partner 0.5 µM)
The method, boiled down: as §1

Compound in the experiment “Tipifarnib + Decitabine”: Cn1cncc1[C@@](N)(c1ccc(Cl)cc1)c1ccc2c(c1)c(-c1cccc(Cl)c1)cc(=O)n2C [Tipifarnib] + Nc1ncn([C@H]2C[C@H](O)[C@@H](CO)O2)c(=O)n1 [Decitabine] (partner 2 µM)
The gist of the method:
as §1

NCI-H2087: the relative viability with Tipifarnib + Pictilisib (first compound 0.01 µM) was determined as 0.796; in the experiment with Tipifarnib + Pictilisib (first compound 0.03162 µM), 0.682; with Tipifarnib + Pictilisib (first compound 0.1 µM) it was 0.587; in the experiment with Tipifarnib + Pictilisib (first compound 0.3162 µM), 0.427; with Tipifarnib + Pictilisib (first compound 1 µM), 0.385; with Tipifarnib + Phenformin (first compound 0.01 µM) it was 0.463. The relative viability stood at 0.38 in the experiment with Tipifarnib + Phenformin (first compound 0.03162 µM); 0.298 in the experiment with Tipifarnib + Phenformin (first compound 0.1 µM); 0.294 with Tipifarnib + Phenformin (first compound 0.3162 µM); 0.222 with Tipifarnib + Phenformin (first compound 1 µM); 0.212 with Tipifarnib + Palbociclib (first compound 0.01 µM); 0.233 with Tipifarnib + Palbociclib (first compound 0.03162 µM). The relative viability in the experiment with Tipifarnib + Palbociclib (first compound 0.1 µM) is 0.23; with Tipifarnib + Palbociclib (first compound 0.3162 µM) it was 0.11; with Tipifarnib + Palbociclib (first compound 1 µM) it was 0.193; in the experiment with Tipifarnib + Decitabine (first compound 0.01 µM), 0.348; with Tipifarnib + Decitabine (first compound 0.03162 µM) it was 0.262; with Tipifarnib + Decitabine (first compound 0.1 µM), 0.259. Also, the relative viability is 0.205 in the experiment with Tipifarnib + Decitabine (first compound 0.3162 µM) and 0.206 with Tipifarnib + Decitabine (first compound 1 µM).

With NCI-H2228, the relative viability in the experiment with Tipifarnib + Pictilisib (first compound 0.01 µM) amounted to 0.369; with Tipifarnib + Pictilisib (first compound 0.03162 µM), 0.388; with Tipifarnib + Pictilisib (first compound 0.1 µM), 0.325; with Tipifarnib + Pictilisib (first compound 0.3162 µM), 0.202; with Tipifarnib + Pictilisib (first compound 1 µM), 0.243; with Tipifarnib + Phenformin (first compound 0.01 µM), 0.25. The relative viability with Tipifarnib + Phenformin (first compound 0.03162 µM) was 0.286; with Tipifarnib + Phenformin (first compound 0.1 µM), 0.379; with Tipifarnib + Phenformin (first compound 0.3162 µM), 0.222; in the experiment with Tipifarnib + Phenformin (first compound 1 µM) it was 0.138; with Tipifarnib + Palbociclib (first compound 0.01 µM), 0.971; in the experiment with Tipifarnib + Palbociclib (first compound 0.03162 µM) it was 0.599. Further, the relative viability with Tipifarnib + Palbociclib (first compound 0.1 µM) stood at 0.353; with Tipifarnib + Palbociclib (first compound 0.3162 µM), 0.551; in the experiment with Tipifarnib + Palbociclib (first compound 1 µM), 0.29.

On to NCI-H727, for which the relative viability stood at 0.625 with Tipifarnib + Pictilisib (first compound 0.01 µM); 0.438 in the experiment with Tipifarnib + Pictilisib (first compound 0.03162 µM); 0.484 in the experiment with Tipifarnib + Pictilisib (first compound 0.1 µM); 0.389 with Tipifarnib + Pictilisib (first compound 0.3162 µM); 0.444 in the experiment with Tipifarnib + Pictilisib (first compound 1 µM); 0.529 with Tipifarnib + Phenformin (first compound 0.01 µM). In addition, the relative viability with Tipifarnib + Phenformin (first compound 0.03162 µM) is 0.501; in the experiment with Tipifarnib + Phenformin (first compound 0.1 µM), 0.544; in the experiment with Tipifarnib + Phenformin (first compound 0.3162 µM), 0.617; with Tipifarnib + Phenformin (first compound 1 µM), 0.539; in the experiment with Tipifarnib + Palbociclib (first compound 0.01 µM), 0.693; with Tipifarnib + Palbociclib (first compound 0.03162 µM) it was 0.596. The relative viability with Tipifarnib + Palbociclib (first compound 0.1 µM) was 0.599; with Tipifarnib + Palbociclib (first compound 0.3162 µM), 0.652; in the experiment with Tipifarnib + Palbociclib (first compound 1 µM), 0.615; in the experiment with Tipifarnib + Decitabine (first compound 0.01 µM), 0.862; with Tipifarnib + Decitabine (first compound 0.03162 µM) it was 0.811; with Tipifarnib + Decitabine (first compound 0.1 µM) it was 0.855. Moreover, the relative viability with Tipifarnib + Decitabine (first compound 0.3162 µM) turned out to be 0.765; with Tipifarnib + Decitabine (first compound 1 µM) it was 0.851.

NCI-H650: the relative viability with Tipifarnib + Pictilisib (first compound 0.01 µM) is 1.14; in the experiment with Tipifarnib + Pictilisib (first compound 0.03162 µM) it was 0.746; in the experiment with Tipifarnib + Pictilisib (first compound 0.1 µM), 0.647; in the experiment with Tipifarnib + Pictilisib (first compound 0.3162 µM) it was 0.557; in the experiment with Tipifarnib + Pictilisib (first compound 1 µM), 0.351; in the experiment with Tipifarnib + Phenformin (first compound 0.01 µM) it was 0.411. Besides, the relative viability was 0.419 with Tipifarnib + Phenformin (first compound 0.03162 µM); 0.419 in the experiment with Tipifarnib + Phenformin (first compound 0.1 µM); 0.408 with Tipifarnib + Phenformin (first compound 0.3162 µM); 0.277 with Tipifarnib + Phenformin (first compound 1 µM); 0.368 with Tipifarnib + Palbociclib (first compound 0.01 µM); 0.321 with Tipifarnib + Palbociclib (first compound 0.03162 µM). The relative viability amounted to 0.379 in the experiment with Tipifarnib + Palbociclib (first compound 0.1 µM); 0.269 with Tipifarnib + Palbociclib (first compound 0.3162 µM); 0.233 with Tipifarnib + Palbociclib (first compound 1 µM); 0.352 with Tipifarnib + Decitabine (first compound 0.01 µM); 0.33 with Tipifarnib + Decitabine (first compound 0.03162 µM); 0.341 in the experiment with Tipifarnib + Decitabine (first compound 0.1 µM). Also, the relative viability amounted to 0.251 with Tipifarnib + Decitabine (first compound 0.3162 µM) and 0.305 with Tipifarnib + Decitabine (first compound 1 µM).

In the case of NCI-H520, the relative viability came to 0.283 with Tipifarnib + Pictilisib (first compound 0.01 µM); 0.227 with Tipifarnib + Pictilisib (first compound 0.03162 µM); 0.243 with Tipifarnib + Pictilisib (first compound 0.1 µM); 0.275 in the experiment with Tipifarnib + Pictilisib (first compound 0.3162 µM); 0.166 with Tipifarnib + Pictilisib (first compound 1 µM); 0.591 with Tipifarnib + Phenformin (first compound 0.01 µM). Also, the relative viability was 0.319 with Tipifarnib + Phenformin (first compound 0.03162 µM); 0.447 with Tipifarnib + Phenformin (first compound 0.1 µM); 0.425 with Tipifarnib + Phenformin (first compound 0.3162 µM); 0.267 with Tipifarnib + Phenformin (first compound 1 µM); 0.181 in the experiment with Tipifarnib + Palbociclib (first compound 0.01 µM); 0.238 with Tipifarnib + Palbociclib (first compound 0.03162 µM). Also, the relative viability with Tipifarnib + Palbociclib (first compound 0.1 µM) was determined as 0.254; in the experiment with Tipifarnib + Palbociclib (first compound 0.3162 µM), 0.162; with Tipifarnib + Palbociclib (first compound 1 µM), 0.2; in the experiment with Tipifarnib + Decitabine (first compound 0.01 µM), 0.583; in the experiment with Tipifarnib + Decitabine (first compound 0.03162 µM), 0.469; with Tipifarnib + Decitabine (first compound 0.1 µM), 0.627. The relative viability with Tipifarnib + Decitabine (first compound 0.3162 µM) was found to be 0.401; in the experiment with Tipifarnib + Decitabine (first compound 1 µM), 0.424.

Turning to EBC-1, the relative viability in the experiment with Tipifarnib + Pictilisib (first compound 0.01 µM) came to 0.313; with Tipifarnib + Pictilisib (first compound 0.03162 µM), 0.199; in the experiment with Tipifarnib + Pictilisib (first compound 0.1 µM) it was 0.198; in the experiment with Tipifarnib + Pictilisib (first compound 0.3162 µM), 0.183; with Tipifarnib + Pictilisib (first compound 1 µM), 0.242.

For NCI-H661, the relative viability with Tipifarnib + Pictilisib (first compound 0.01 µM) stood at 0.441; in the experiment with Tipifarnib + Pictilisib (first compound 0.03162 µM), 0.535; with Tipifarnib + Pictilisib (first compound 0.1 µM) it was 0.419; in the experiment with Tipifarnib + Pictilisib (first compound 0.3162 µM), 0.474; in the experiment with Tipifarnib + Pictilisib (first compound 1 µM) it was 0.326; with Tipifarnib + Phenformin (first compound 0.01 µM), 0.29. For the same cell line, the relative viability in the experiment with Tipifarnib + Phenformin (first compound 0.03162 µM) stood at 0.283; in the experiment with Tipifarnib + Phenformin (first compound 0.1 µM), 0.275; with Tipifarnib + Phenformin (first compound 0.3162 µM) it was 0.261; in the experiment with Tipifarnib + Phenformin (first compound 1 µM), 0.309; in the experiment with Tipifarnib + Palbociclib (first compound 0.01 µM), 0.435; in the experiment with Tipifarnib + Palbociclib (first compound 0.03162 µM), 0.349. The relative viability with Tipifarnib + Palbociclib (first compound 0.1 µM) amounted to 0.36; with Tipifarnib + Palbociclib (first compound 0.3162 µM), 0.315; in the experiment with Tipifarnib + Palbociclib (first compound 1 µM), 0.35; with Tipifarnib + Decitabine (first compound 0.01 µM), 0.646; in the experiment with Tipifarnib + Decitabine (first compound 0.03162 µM), 0.564; in the experiment with Tipifarnib + Decitabine (first compound 0.1 µM), 0.525. In addition, the relative viability in the experiment with Tipifarnib + Decitabine (first compound 0.3162 µM) was determined as 0.503; in the experiment with Tipifarnib + Decitabine (first compound 1 µM) it was 0.531.

As to NCI-H1299, the relative viability in the experiment with Tipifarnib + Pictilisib (first compound 0.01 µM) amounted to 0.64; with Tipifarnib + Pictilisib (first compound 0.03162 µM), 0.837; with Tipifarnib + Pictilisib (first compound 0.1 µM), 0.422; in the experiment with Tipifarnib + Pictilisib (first compound 0.3162 µM), 0.35; in the experiment with Tipifarnib + Pictilisib (first compound 1 µM), 0.298.

For the cell line LK-2, the relative viability in the experiment with Tipifarnib + Pictilisib (first compound 0.01 µM) is 0.615; with Tipifarnib + Pictilisib (first compound 0.03162 µM), 0.5; in the experiment with Tipifarnib + Pictilisib (first compound 0.1 µM), 0.541; in the experiment with Tipifarnib + Pictilisib (first compound 0.3162 µM), 0.305; with Tipifarnib + Pictilisib (first compound 1 µM), 0.485; with Tipifarnib + Phenformin (first compound 0.01 µM) it was 0.471. In addition, the relative viability in the experiment with Tipifarnib + Phenformin (first compound 0.03162 µM) was 0.11; with Tipifarnib + Phenformin (first compound 0.1 µM), 0.428; with Tipifarnib + Phenformin (first compound 0.3162 µM), 0.248; with Tipifarnib + Phenformin (first compound 1 µM), 0.184; with Tipifarnib + Palbociclib (first compound 0.01 µM) it was 0.586; in the experiment with Tipifarnib + Palbociclib (first compound 0.03162 µM), 0.543. For the same cell line, the relative viability with Tipifarnib + Palbociclib (first compound 0.1 µM) amounted to 0.481; with Tipifarnib + Palbociclib (first compound 0.3162 µM), 0.474; in the experiment with Tipifarnib + Palbociclib (first compound 1 µM), 0.42; with Tipifarnib + Decitabine (first compound 0.01 µM), 0.375; with Tipifarnib + Decitabine (first compound 0.03162 µM) it was 0.266; with Tipifarnib + Decitabine (first compound 0.1 µM), 0.276. The results for the relative viability with Tipifarnib + Decitabine (first compound 0.3162 µM) and with Tipifarnib + Decitabine (first compound 1 µM) were 0.265 and 0.139, respectively.
